Assay results as given in US9346769B2, “Tetrazolones as inhibitors of fatty acid synthase” (Infinity Pharmaceuticals, Inc., priority 2010, dated 2016).

target: T1, human FASN (Homo sapiens, UniProt P49327); assay: FASN Scintillation Proximity Flashplate Assay; format: biochemical; details: human FASN purified from SKBR3 cells; unstarred symbols
T1 construct: was purified from SKBR3 cells using procedures modified from those in Jayakumar et al; endogenous in cells; host or cells: SKBR3 human breast cancer cells (ATCC); Endogenous enzyme purified by ammonium sulfate precipitation and a mono Q column
Protocol: Human FASN protein (SEQ ID NO. 1) was purified from SKBR3 cells using procedures modified from those in Jayakumar et al. PNAS 1995, 92:8695-8699. SKBR3 cells were obtained from ATCC and grown in DMEM high glucose medium supplemented with 10% FBS, 1 μg/mL bovine pancreas insulin, 100 U/mL penicillin and 100 µg/mL streptomycin. The confluent cells were trypsinized and washed three times with PBS buffer before frozen in liquid N2 and stored at −80° C. Frozen cells were thawed on ice and resuspended in lysis buffer (25 mM Tris-HCl, pH 7.0, 15 mM NaCl, 1 mM EDTA, and 1 mM DTT) with protease inhibitors. The cells were lysed by sonication, and the cell debris was removed by centrifugation at 20,000 rpm for 30 min. To the supernatant, neutralized saturated ammonium sulfate solution was added to a final concentration of 35%. The solution was left on ice for 1 hr, and the precipitated proteins were harvested by centrifugation at 20,000 rpm for 30 min. The proteins were redissolved in lysis buffer without NaCl and loaded on a mono Q column. Bound proteins were eluted with a linear gradient of NaCl in lysis buffer. Each fraction was analyzed by SDS-PAGE and FASN NADPH consumption assay. The fractions containing FASN were pooled and concentrated to 2-3 mg/mL. Glycerol was added to 20%, and the protein was frozen in liquid N2 and stored at −80° C.
Acetyl-coenzyme A, malonyl-coenzyme A, NADPH, bovine gamma globulin, and ORLISTAT were purchased from Sigma (St. Louis, Mo.). Tris(2-carboxyethyl) phosphine hydrochloride (TCEP) was purchased from Pierce Biotechnologies (Rockford, Ill.). [^3H]-acetyl-coenzyme A was purchased from Moravek Biochemicals (Brea, CA). FlashPlate™ PLUS phospholipid 96-well scintillant coated microplates were purchased from Perkin Elmer Life and Analytical Sciences (Shelton, CT). The method of the FASN Scintillation Proximity FlashPlate assay is similar to that described in Weiss and Glickman Assay Drug Dev Technol 2003, 1:161-6. In a 96-well polypropylene microplate, a dilution series (typical concentrations 60 nM-1.0 mM) of test compounds were prepared in DMSO followed by a 20-fold dilution into FASN assay buffer (50 mM potassium phosphate, pH 7.0, 1.0 mM EDTA, 0.01% NP-40), of which 5.0 μL each was transferred to a FlashPlate® PLUS 96-well plate and mixed with 35 μL FASN assay buffer plus 0.5 mg/mL bovine gamma globulin and 1 mM TCEP. FASN protein (10 μL, 10 nM) was added per well, and the microplate was incubated at 37° C. for 30 min. 10 μL of 20 mM NADPH was added, and the reaction was initiated by addition of […] substrate mixture to final concentrations of 1 nM FASN, 100 μM acetyl-coenzyme A, 6 μCi [^3H]-acetyl-coenzyme A, 300 μM malonyl-coenzyme A, 2 mM NADPH, 0.5 mg/mL bovine gamma globulin, and 1 mM TCEP in a volume of 100 μL per well. Assay plates were incubated for 2 hr at 37° C. and the reaction was stopped with 2 μL of 2.5 mM stock solution of ORLISTAT in DMSO to ˜50 μM. The plates were read in a Wallac 1450 Microbeta Plus liquid scintillation counter (Perkin Elmer, Waltham, Mass.), and counts per minute (CPM) were collected over 2 min. Each inhibitor well CPM was compared to the maximum FASN enzyme activity (Max) CPM and the background (Min) CPM, as measured by omission of FASN enzyme in the background well. % Inhibition values were calculated, and curves were fitted by a four-parameter logistic function to yield IC50 values:
Compounds were assayed as inhibitors of human FASN using the above-described FASN Scintillation Proximity Flashplate Assay (IC50; nM) or FASN NADPH Consumption Assay (*) (IC50; nM). The corresponding activity of the isolated compound is also provided along with the measured mass (ES^+).

T1 sequence (P49327 whole entry): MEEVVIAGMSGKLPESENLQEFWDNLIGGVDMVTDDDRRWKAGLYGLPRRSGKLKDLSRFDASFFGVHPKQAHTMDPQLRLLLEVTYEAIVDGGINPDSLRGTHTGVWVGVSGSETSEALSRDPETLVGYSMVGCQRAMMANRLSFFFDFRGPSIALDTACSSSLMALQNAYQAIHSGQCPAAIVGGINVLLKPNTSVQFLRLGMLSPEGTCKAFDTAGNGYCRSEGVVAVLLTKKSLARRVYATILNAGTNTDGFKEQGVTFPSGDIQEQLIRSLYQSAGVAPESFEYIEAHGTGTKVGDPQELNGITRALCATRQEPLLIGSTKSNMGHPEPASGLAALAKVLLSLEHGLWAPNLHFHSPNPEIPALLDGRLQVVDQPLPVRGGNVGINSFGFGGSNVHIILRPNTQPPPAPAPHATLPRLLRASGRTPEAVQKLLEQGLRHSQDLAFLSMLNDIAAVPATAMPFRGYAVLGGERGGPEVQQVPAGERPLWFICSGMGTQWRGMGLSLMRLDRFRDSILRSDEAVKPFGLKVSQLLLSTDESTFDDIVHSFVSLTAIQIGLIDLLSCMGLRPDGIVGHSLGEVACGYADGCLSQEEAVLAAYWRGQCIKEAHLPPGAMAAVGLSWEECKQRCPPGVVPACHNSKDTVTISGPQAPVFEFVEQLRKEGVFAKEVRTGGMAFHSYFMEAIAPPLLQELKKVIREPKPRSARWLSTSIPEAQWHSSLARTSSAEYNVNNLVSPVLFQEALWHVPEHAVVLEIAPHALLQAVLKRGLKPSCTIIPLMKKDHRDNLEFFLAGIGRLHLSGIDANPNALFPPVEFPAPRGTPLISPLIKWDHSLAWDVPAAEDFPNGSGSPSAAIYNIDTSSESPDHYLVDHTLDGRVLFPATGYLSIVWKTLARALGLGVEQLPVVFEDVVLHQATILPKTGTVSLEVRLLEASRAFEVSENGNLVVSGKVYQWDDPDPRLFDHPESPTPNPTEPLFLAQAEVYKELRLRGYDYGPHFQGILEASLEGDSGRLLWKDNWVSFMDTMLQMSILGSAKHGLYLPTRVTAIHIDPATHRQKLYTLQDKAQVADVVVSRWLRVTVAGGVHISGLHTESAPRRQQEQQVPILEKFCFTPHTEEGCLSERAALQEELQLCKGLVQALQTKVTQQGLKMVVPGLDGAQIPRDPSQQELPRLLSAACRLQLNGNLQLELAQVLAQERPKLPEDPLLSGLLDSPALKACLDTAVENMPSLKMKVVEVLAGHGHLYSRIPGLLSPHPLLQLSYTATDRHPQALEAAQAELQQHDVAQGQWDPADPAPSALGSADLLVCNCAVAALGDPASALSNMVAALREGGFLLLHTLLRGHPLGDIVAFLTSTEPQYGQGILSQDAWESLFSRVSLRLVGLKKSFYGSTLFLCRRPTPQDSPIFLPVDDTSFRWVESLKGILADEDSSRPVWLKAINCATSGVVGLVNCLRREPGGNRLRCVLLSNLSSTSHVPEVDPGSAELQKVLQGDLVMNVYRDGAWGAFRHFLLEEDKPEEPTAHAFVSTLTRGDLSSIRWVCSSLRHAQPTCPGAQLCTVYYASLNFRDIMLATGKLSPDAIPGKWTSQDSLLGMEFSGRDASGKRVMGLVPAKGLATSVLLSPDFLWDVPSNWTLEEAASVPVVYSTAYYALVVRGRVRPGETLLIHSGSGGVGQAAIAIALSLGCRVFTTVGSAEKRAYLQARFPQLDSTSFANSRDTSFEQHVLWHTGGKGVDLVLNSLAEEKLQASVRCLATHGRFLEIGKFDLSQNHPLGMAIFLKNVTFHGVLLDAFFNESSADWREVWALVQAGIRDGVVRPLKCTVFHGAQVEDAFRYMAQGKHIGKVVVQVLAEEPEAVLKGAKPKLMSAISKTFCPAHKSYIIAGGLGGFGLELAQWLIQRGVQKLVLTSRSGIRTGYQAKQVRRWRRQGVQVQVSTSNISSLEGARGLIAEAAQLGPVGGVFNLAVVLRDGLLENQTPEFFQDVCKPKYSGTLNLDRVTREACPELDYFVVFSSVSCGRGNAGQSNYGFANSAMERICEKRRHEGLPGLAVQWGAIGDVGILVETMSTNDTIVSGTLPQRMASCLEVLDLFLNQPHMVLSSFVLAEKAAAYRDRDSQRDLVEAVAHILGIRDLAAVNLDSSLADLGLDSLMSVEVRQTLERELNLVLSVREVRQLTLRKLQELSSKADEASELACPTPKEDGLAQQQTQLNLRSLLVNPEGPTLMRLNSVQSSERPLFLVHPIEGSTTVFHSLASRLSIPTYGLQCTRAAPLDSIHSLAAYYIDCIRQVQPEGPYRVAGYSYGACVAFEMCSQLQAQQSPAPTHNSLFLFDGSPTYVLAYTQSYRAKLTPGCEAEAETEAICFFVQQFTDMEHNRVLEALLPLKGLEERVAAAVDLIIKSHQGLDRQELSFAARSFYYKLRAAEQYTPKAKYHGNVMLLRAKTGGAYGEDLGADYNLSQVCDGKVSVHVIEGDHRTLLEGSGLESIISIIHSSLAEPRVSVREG

SMILES	IC50
COc1cccc(F)c1-n1nnn(C(=O)N(c2cc(C(=O)O)ccc2Oc2ccccc2)C(C)C)c1=O	< 15 nM
COc1ccc(N(C(=O)n2nnn(-c3c(F)cccc3OC)c2=O)C(C)C)cc1C(=O)OCc1ccccc1	< 15 nM
COc1ccc(N(C(=O)n2nnn(-c3c(F)cccc3OCC(OC)OC)c2=O)C2CCCCC2)cc1C(=O)O	< 15 nM
CCN(C(=O)n1nnn(-c2c(F)cccc2F)c1=O)c1ccc(NS(C)(=O)=O)cc1F	< 15 nM
CC(C)N(C(=O)n1nnn(-c2c(F)cccc2F)c1=O)c1ccc(N(S(C)(=O)=O)S(C)(=O)=O)c(C(=O)OCc2ccccc2)c1	< 15 nM
COc1ccc(N(C(=O)n2nnn(-c3cccc4nsnc34)c2=O)C2CCCCC2)cc1C(=O)O	15 to 100 nM
CCN(C(=O)n1nnn(-c2c(F)cccc2OC)c1=O)c1cccc(Oc2cccc(C(=O)O)c2)c1	< 15 nM
CC(C)N(C(=O)n1nnn(-c2c(F)cccc2F)c1=O)c1ccc(Cl)c(C(=O)O)c1	< 15 nM
CCN(C(=O)n1nnn(-c2c(F)cccc2F)c1=O)c1ccc(N)cc1F	< 15 nM
O=C(O)c1ccc(N(C(=O)n2nnn(-c3c(F)cccc3F)c2=O)C2CCCCC2)cn1	< 15 nM
CC(C)N(C(=O)n1nnn(-c2c(F)cccc2F)c1=O)c1ccc(N(S(C)(=O)=O)S(C)(=O)=O)c(C(=O)O)c1	< 15 nM
CCN(C(=O)n1nnn(-c2c(F)cccc2OC)c1=O)c1cc(C(=O)O)ccc1OCCc1ccccc1	< 15 nM
COc1cccc(F)c1-n1nnn(C(=O)N(c2cccc(C(=O)OCc3ccccc3)c2)C(C)(C)C)c1=O	200 to 5000 nM
COc1ccc(C(=O)O)cc1N(C(=O)n1nnn(-c2c(F)cccc2F)c1=O)C1CCCCC1	< 15 nM
COc1ccc(C(=O)O)cc1N(C(=O)n1nnn(-c2c(F)cccc2OC)c1=O)C(C)C	< 15 nM
CCNC(=O)N1CCN(c2ccc(N(C(=O)n3nnn(-c4c(F)cccc4F)c3=O)C3CCCCC3)cc2C(=O)O)CC1	< 15 nM
COc1ccc(C(=O)O)cc1N(C(=O)n1nnn(-c2c(F)cccc2OC)c1=O)C1CCCCC1	< 15 nM
COc1ccc(N(C(=O)n2nnn(-c3c(F)cccc3C(=O)N3CCCCC3)c2=O)C(C)C)cc1C(=O)OCc1ccccc1	< 15 nM
CCC(CC)N(C(=O)n1nnn(-c2c(F)cccc2F)c1=O)c1cccc(C(=O)OCc2ccccc2)c1	< 15 nM
COc1ccc(C(=O)OCc2ccccc2)cc1N(C(=O)n1nnn(-c2c(F)cccc2OC(C)C)c1=O)C1CCCCC1	15 to 100 nM
CCN(C(=O)n1nnn(-c2c(F)cccc2F)c1=O)c1ccc(OC)c(C(=O)O)c1	15 to 100 nM
COc1ccc(N(C(=O)n2nnn(-c3cccc4nc[nH]c34)c2=O)C2CCCCC2)cc1C(=O)O	100 to 200 nM

SMILES	IC50
CC(C)N(C(=O)n1nnn(-c2c(F)cccc2F)c1=O)c1ccc(NC(=O)OC(C)(C)C)c(C(=O)OCc2ccccc2)c1	< 15 nM
CC(C)N(C(=O)n1nnn(-c2c(F)cccc2F)c1=O)c1cccc(C(=O)O)c1	15 to 100 nM
COc1ccc(N(C(=O)n2nnn(-c3c(F)cccc3F)c2=O)C2CCCCC2)c(OC)c1C(=O)OCc1ccccc1	< 15 nM
CCN(C(=O)n1nnn(-c2c(F)cccc2OC)c1=O)c1cc(Oc2ccc(C(=O)OCc3ccccc3)cc2)ccc1C	200 to 5000 nM
CCCN(C(=O)n1nnn(-c2ccccc2Cl)c1=O)C1CCCC1	200 to 5000 nM
CCN(C(=O)n1nnn(-c2c(F)cccc2OC)c1=O)c1ccccc1OCCc1ccccc1	< 15 nM
COc1cccc(F)c1-n1nnn(C(=O)N(c2ccccc2)C2CCOCC2)c1=O	15 to 100 nM
COCCOc1ccc(N(C(=O)n2nnn(-c3c(F)cccc3F)c2=O)C2CCCCC2)cc1C(=O)O	< 15 nM
CC(C)N(C(=O)n1nnn(-c2c(F)cccc2F)c1=O)c1cc(C(=O)O)ccc1Oc1ccccc1	< 15 nM
CCN(C(=O)n1nnn(-c2c(F)cccc2F)c1=O)c1ccc(F)cc1F	< 15 nM
COc1cccc(F)c1-n1nnn(C(=O)N(CC(C)(C)C)c2cccc(C(=O)O)c2)c1=O	200 to 5000 nM
COc1ccccc1-n1nnn(C(=O)N(c2ccc(Br)cc2)c2ccc(C(=O)O)cc2)c1=O	< 15 nM
CN(C)N(C(=O)n1nnn(-c2ccccc2F)c1=O)C1=CCCC1	100 to 200 nM
CCN(C(=O)n1nnn(-c2c(F)cccc2OC)c1=O)c1cc(C(=O)O)ccc1OC(C)C	15 to 100 nM
CCN(C(=O)n1nnn(-c2c(F)cccc2F)c1=O)c1ccccc1Oc1ccccc1	< 15 nM
COc1ccc(C(=O)O)cc1N(C(=O)n1nnn(-c2c(F)cccc2F)c1=O)C(C)C	< 15 nM
COc1cc(Oc2ccccc2)c(N(C(=O)n2nnn(-c3c(F)cccc3F)c2=O)C2CCCCC2)cc1C(=O)O	< 15 nM
O=C(N(c1ccccc1)C1CCCCC1)n1nnn(-c2c(F)cccc2F)c1=O	< 15 nM
COc1cccc(F)c1-n1nnn(C(=O)N(CC(C)(C)C)c2cccc(C(=O)OCc3ccccc3)c2)c1=O	15 to 100 nM
COc1ccc(N(C(=O)n2nnn(-c3c(F)cccc3F)c2=O)C(C)C)cc1C(=O)O	< 15 nM
COc1cc(N(C(=O)n2nnn(-c3c(F)cccc3F)c2=O)C2CCCCC2)ccc1C(=O)O	< 15 nM
COc1cccc(F)c1-n1nnn(C(=O)N(c2ccccc2)C2CCCCC2)c1=O	15 to 100 nM

SMILES	IC50
CCCCOc1ccc(C(=O)O)cc1N(CC)C(=O)n1nnn(-c2ccccc2OC)c1=O	< 15 nM
CCOC(=O)c1cc(C)n(-c2ccc(N(C(=O)n3nnn(-c4c(F)cccc4F)c3=O)C3CCCCC3)cc2C(=O)O)n1	< 15 nM
COc1ccc(N(C(=O)n2nnn(-c3cccc(N)c3N)c2=O)C2CCCCC2)cc1C(=O)O	15 to 100 nM
O=C(O)c1ccc(N(C(=O)n2nnn(-c3c(F)cccc3F)c2=O)C2CCCC2)c(Oc2ccccc2)c1	< 15 nM
O=C(NCc1ccccc1)c1cccc(N(C(=O)n2nnn(-c3c(F)cccc3F)c2=O)C2CCCCC2)c1	< 15 nM
CN(C)c1ccc2c(c1)OC(=O)CC2CC(=O)Nc1cccc2c1CCCN2C(=O)n1nnn(-c2c(F)cccc2F)c1=O (stereo not shown)	15 to 100 nM
CC(C)N(C(=O)n1nnn(-c2c(F)cccc2F)c1=O)c1ccc(C(=O)OCc2ccccc2)cc1F	< 15 nM
CCC(C)N(C(=O)n1nnn(-c2c(F)cccc2OC)c1=O)c1cccc(C(=O)OCc2ccccc2)c1 (stereo not shown)	< 15 nM
CN(C)c1ccc(N(C(=O)n2nnn(-c3c(F)cccc3F)c2=O)C2CCCCC2)cc1C(=O)O	< 15 nM
COc1ccc(N(C(=O)n2nnn(-c3c(F)cccc3C(=O)N(C)c3ccccc3)c2=O)C(C)C)cc1C(=O)O	15 to 100 nM
COc1ccc(N(C(=O)n2nnn(-c3c(F)cccc3C(=O)O)c2=O)C(C)C)cc1C(=O)OCc1ccccc1	15 to 100 nM
CCN(C(=O)n1nnn(-c2c(F)cccc2OC)c1=O)c1ccccc1Oc1ccccc1	15 to 100 nM
COCCOc1cccc(F)c1-n1nnn(C(=O)N(c2ccc(OC)c(C(=O)O)c2)C2CCCCC2)c1=O	< 15 nM
COc1ccc(N(C(=O)n2nnn(-c3c(F)cccc3OC)c2=O)C(C)C)cc1C(=O)O	15 to 100 nM
CN(C)N(C(=O)n1nnn(-c2ccccc2Cl)c1=O)C1CCCC1	200 to 5000 nM
CCN(C(=O)n1nnn(-c2ccccc2OC)c1=O)c1ccc(C(=O)OCc2ccccc2)cc1	15 to 100 nM
CCN(C(=O)n1nnn(-c2c(F)cccc2C(=O)N2CCOCC2)c1=O)c1ccccc1Oc1ccccc1	200 to 5000 nM
CCN(C(=O)n1nnn(-c2c(Cl)cccc2Cl)c1=O)c1cccc(C(=O)O)c1	15 to 100 nM
COc1cccc(F)c1-n1nnn(C(=O)N(c2cccc(C(=O)O)c2)C(C)C)c1=O	15 to 100 nM
CCN(C(=O)n1nnn(-c2c(F)cccc2F)c1=O)c1ccc(C(=O)O)c(OC)c1	< 15 nM
